Test: Particle size of the drug particles used (electron microscope, 200 particles)
Assay type: physicochemical
Details: drug particles before incorporation
Protocol: The various drug particles used in the Examples and Comparative Examples were obtained passing the powder through a 32 μm, 50 μm or 90 μm sieve after pulverization, or obtained fine particles by a jet mill (product of Hosokawa Micron Group, spiral jet mill model 50AS) or a spray dryer (product of Büchi Labortechnik AG, mini spray dryer model B-290) after pulverization. The particle sizes of these drug particles was measured by electron microscope (product of Hitachi High-Technologies Corp., model TM-1000) and the 50 vol % average particle size was calculated from the measurement results of 200 particles. This value was used as the particle size index of the particles.

Row | 50 vol % average particle size [um] | Structure (SMILES)
1 | 28.4 | COc1ccc2[nH]cc(CCNC(C)=O)c2c1 [Melatonin particles B, Melatonin]
2 | 1.8 | COc1ccc2c(c1)c(CC(=O)O)c(C)n2C(=O)c1ccc(Cl)cc1 [Indomethacin particles, Indomethacin]
3 | 180.5 | COc1ccc2[nH]cc(CCNC(C)=O)c2c1 [Melatonin particles C, Melatonin]
4 | 1.7 | CC(C(=O)O)c1cccc(C(=O)c2ccccc2)c1 (centres unmarked) [Ketoprofen particles, Ketoprofen]
5 | 2.1 | COc1ccc2[nH]cc(CCNC(C)=O)c2c1 [Melatonin particles A, Melatonin]

— US20110244047A1, “FILM-FORM PREPARATION AND METHOD FOR PRODUCING THE SAME” (NITTO DENKO CORPORATION, priority 2010, published 2011)
